{
  "source": "patent US9970945B2",
  "about": "“Compositions, methods, and assays using proteo-liposome-transfected oocytes for analyzing the structure, function, and activity of membrane proteins” (Georgia State University Research Foundation, Inc., priority 2013, dated 2018)",
  "key": {"EcSecA": {"target": "T1, EcSecA (Escherichia coli, UniProt P10408)", "T1 construct": "made in house; host or cells: E. coli BL21(λDE3)/pT7-SecA", "T1 sequence (P10408 whole entry)": "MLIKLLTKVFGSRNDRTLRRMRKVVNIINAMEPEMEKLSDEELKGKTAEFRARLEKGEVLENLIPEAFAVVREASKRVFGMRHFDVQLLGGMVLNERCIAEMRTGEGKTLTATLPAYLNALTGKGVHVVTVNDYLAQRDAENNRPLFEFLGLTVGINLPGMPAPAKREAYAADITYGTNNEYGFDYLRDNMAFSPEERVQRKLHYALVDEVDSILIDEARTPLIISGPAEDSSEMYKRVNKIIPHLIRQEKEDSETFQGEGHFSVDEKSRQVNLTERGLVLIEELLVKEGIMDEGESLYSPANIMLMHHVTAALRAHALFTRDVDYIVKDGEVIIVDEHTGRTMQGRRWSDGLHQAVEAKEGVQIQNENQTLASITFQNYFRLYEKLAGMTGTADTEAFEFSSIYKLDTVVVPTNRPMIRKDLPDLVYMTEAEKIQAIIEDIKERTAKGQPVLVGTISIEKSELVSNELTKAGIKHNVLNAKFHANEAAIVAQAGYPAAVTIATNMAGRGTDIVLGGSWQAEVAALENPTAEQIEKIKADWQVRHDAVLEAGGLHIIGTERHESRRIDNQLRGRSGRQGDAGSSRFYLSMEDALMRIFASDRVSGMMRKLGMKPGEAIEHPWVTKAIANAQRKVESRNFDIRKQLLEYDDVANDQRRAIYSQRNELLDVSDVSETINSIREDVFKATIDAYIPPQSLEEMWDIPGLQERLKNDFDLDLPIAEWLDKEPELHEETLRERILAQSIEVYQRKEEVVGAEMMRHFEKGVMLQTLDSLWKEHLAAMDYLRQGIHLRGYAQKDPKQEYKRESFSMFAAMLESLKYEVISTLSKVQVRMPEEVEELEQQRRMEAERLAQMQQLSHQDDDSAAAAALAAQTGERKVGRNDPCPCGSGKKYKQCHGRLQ", "assay_type": "cell-based, E. coli", "details": "channel activity assay"}, "PaSecA": {"target": "T2, PaSecA (Pseudomonas aeruginosa, UniProt Q9LCT3)", "T2 construct": "made in house; host or cells: E. coli BL21.19", "T2 sequence (Q9LCT3 whole entry)": "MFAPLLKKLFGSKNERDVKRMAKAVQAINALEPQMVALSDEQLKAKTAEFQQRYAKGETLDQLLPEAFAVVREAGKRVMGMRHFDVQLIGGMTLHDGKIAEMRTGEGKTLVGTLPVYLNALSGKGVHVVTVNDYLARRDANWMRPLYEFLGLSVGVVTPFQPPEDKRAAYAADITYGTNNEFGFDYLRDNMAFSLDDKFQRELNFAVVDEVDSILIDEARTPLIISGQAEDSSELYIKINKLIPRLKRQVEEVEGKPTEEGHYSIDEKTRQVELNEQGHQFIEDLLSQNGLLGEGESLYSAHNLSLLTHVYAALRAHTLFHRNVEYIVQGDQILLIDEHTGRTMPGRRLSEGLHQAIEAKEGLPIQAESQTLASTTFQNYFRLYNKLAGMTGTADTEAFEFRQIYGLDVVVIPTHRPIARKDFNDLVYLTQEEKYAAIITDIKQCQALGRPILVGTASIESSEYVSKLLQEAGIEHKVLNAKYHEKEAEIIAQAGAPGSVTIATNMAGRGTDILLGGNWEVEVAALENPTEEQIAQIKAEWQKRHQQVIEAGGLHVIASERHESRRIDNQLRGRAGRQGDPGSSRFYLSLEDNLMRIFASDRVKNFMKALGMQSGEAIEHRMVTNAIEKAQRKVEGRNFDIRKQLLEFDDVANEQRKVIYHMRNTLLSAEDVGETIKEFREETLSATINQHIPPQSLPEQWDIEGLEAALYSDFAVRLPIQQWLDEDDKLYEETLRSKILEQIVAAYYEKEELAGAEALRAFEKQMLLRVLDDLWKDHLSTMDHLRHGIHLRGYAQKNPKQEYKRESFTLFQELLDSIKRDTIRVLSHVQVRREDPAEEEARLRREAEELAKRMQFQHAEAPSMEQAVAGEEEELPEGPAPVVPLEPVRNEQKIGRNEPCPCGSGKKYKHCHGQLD", "test": "SecA-liposomes ion-channel activity in Xenopus oocytes (two-electrode voltage clamp)", "assay_type": "cell-based, P. aeruginosa", "details": "injected PaSecA-liposomes in oocytes"}, "[1]": {"target": "Soluble SecA intrinsic ATPase (Escherichia coli, UniProt P10408)", "sequence (P10408 whole entry)": "as the sequence (P10408 whole entry) above", "test": "Soluble SecA intrinsic ATPase inhibition kinetics", "assay_type": "biochemical", "details": "data not shown"}, "[2]": {"target": "T3, E. coli SecA translocation ATPase (Escherichia coli, UniProt P10408)", "T3 construct": "made in house; host or cells: E. coli BL21(λDE3)/pT7-SecA (SecA); E. coli membranes supply SecYEG", "T3 sequence (P10408 whole entry)": "as above", "T3 sequence (P0AGA2 whole entry, further chain)": "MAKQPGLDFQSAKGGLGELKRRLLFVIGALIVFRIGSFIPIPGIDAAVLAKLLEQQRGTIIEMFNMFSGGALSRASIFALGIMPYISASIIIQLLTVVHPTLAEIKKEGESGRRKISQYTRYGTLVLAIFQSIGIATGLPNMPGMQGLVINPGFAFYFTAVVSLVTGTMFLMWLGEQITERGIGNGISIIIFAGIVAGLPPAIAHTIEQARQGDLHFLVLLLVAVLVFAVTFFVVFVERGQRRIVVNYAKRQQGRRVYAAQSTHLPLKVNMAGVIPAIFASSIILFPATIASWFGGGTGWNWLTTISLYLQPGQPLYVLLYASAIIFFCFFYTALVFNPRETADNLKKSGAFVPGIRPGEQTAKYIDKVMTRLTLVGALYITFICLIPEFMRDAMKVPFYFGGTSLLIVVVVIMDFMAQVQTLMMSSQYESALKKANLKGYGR", "T3 sequence (P0AG96 whole entry, further chain)": "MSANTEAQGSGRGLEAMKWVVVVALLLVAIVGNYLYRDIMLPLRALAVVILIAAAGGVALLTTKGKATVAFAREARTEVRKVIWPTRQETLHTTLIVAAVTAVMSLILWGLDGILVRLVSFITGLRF", "T3 sequence (P0AG99 whole entry, further chain)": "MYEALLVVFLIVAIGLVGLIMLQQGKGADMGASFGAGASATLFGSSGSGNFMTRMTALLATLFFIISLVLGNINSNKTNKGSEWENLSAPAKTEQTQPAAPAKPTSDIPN", "test": "In vitro translocation ATPase inhibition kinetics", "assay_type": "biochemical", "details": "requires SecYEG and precursors"}, "Cx26": {"target": "T4, Cx26 (Homo sapiens, UniProt P29033)", "T4 construct": "His6 (C); made in house; host or cells: insect Sf9 cells, Bac-to-Bac baculovirus system", "test": "Cx26-proteoliposome hemi-channel activity in Xenopus oocytes", "assay_type": "cell-based", "procedure": "Voltage Clamp was performed to measure the opening of protein conducting channels. When the channel on the cell membrane was opened, ions pass through the membrane and generate the ionic current. Thus, the recording of ionic current could also mean the opening of the protein conducting channel. Currents through the plasma membranes of oocytes were measured after the oocytes were injected with tested materials. The cells were place in a recording chamber (BSC-HT, Medical System, Greenvale, N.Y.) on a supporting nylon mesh, so that the perfusion solution bathed both the top and the bottom surface of the oocytes. Two electrode voltage clamping was performed using an amplifier (Geneclamp 500, Axon instruments Inc., Foster City, Calif.) at room temperature (23-25° C.). Cells were impaled using electrodes filled with 3 M KCl. One of the electrode (1.0-2.0 MΩ) used for voltage recording was connected to the HS-2×1 L headstage (input resistance, […]), and the other electrode (0.3-0.6 MΩ) was used for current recording to the HS-2×10 MG headstage (maximum current, 130 μA). The electrode was connected through a silver wire that was chloridized freshly for each experiment. Oocytes were used for further experiments only if their leak currents measured as the difference before and after a leak subtraction were less than 10% of the peak currents. The leak subtraction was not applied for data acquisition and analysis. Current records were low-pass filtered (Bessel, 4-pole filter, 3 db at 5 kHz), digitized at 5 kHz (12 but resolution), and analyzed using pClamp6 (Axon Instruments). The highest and lowest records were eliminated, and then the data are presented as mean±S.E. (standard error; n, number of oocytes). The expression rates for each injection sample were also collected as a record to determine the channel activity efficiency.\nThe E. coli liposomes treated with detergent were mixed with purified Cx26 protein at 10:1 ratio. Then the mixture was dialyzed in dialysis solution (0.25 M Sucrose, 0.4 M KOAC, 20 mM triethanolamine hydrocholoride pH7.5, 1.5 mM Mg(OAC)2 and 1 mM EDTA) at 4° C. for 15-18 hours to reconstitute the Cx-26-proteoliposomes.\n10 ng reconstituted Cx26-proteoliposomes was mixed with or without EGTA or CaCl2 and injected into oocytes. The injected oocytes were incubated at 23° C. for 30 mins with 1.8 mM CaCl2 to suppress the bubbling. Recording bath solution was 90K (90 mM KCl, 5 mM HEPES, 3 mM MgCl2) without Ca^2+. For Ca^2+ inhibition, the CaCl2 was added in the extracellular recording bath solution during the recording."}},
  "data": [
    {"smiles": "Oc1ccc2c(c1)Oc1cc(O)ccc1C2C1CCCCC1", "note": "[22d]", "values": [
      {"measurement": "Potency against EcSecA relative to BsSecA", "setting": "EcSecA", "result": "about 2 fold"}
    ]},
    {"smiles": "O=C(O)c1c(Cl)c(Cl)c(Cl)c(Cl)c1-c1c2cc(I)c(=O)c(I)c-2oc2c(I)c(O)c(I)cc12", "note": "[RB, Rose Bengal]", "values": [
      {"measurement": "Inhibition kinetics with ATP, channel activity", "setting": "PaSecA", "result": "non-competitive"},
      {"measurement": "Inhibition kinetics with RB", "setting": "[1]; high ATP", "result": "competitive"},
      {"measurement": "Inhibition kinetics with RB", "setting": "[1]; low ATP", "result": "non-competitive"},
      {"measurement": "Inhibition kinetics with ATP", "setting": "[2]", "result": "non-competitive"}
    ]},
    {"smiles": "O=C(O)CN(CCOCCOCCN(CC(=O)O)CC(=O)O)CC(=O)O", "note": "[EGTA]", "values": [
      {"measurement": "Cx26 channel current", "setting": "Cx26; 10 mM EGTA in extracellular recording bath, from 2 μA", "result": 7, "unit": "μA"},
      {"measurement": "Cx26 hemi-channel activity (current)", "setting": "Cx26; co-injection with 5 mM EGTA, Cx26-liposomes alone around 2 μA", "result": 7, "unit": "μA"}
    ]},
    {"smiles": "[Ca+2].[Cl-].[Cl-]", "note": "[CaCl2]", "values": [
      {"measurement": "Cx26 channel current", "setting": "Cx26; 30 mM CaCl2 added to same extracellular bath after EGTA, 2 mins incubation", "result": 1.3, "unit": "μA"},
      {"measurement": "Effect on Cx26 channel activity", "setting": "Cx26; CaCl2 co-injected with 5 mM EGTA", "result": "reduced the activity"},
      {"measurement": "Half-time of inhibition of Cx26 channel activity", "setting": "Cx26; CaCl2 in extracellular bath solution", "result": "about 1 min"},
      {"measurement": "Effect on Cx26 channel activity", "setting": "Cx26; co-injection with 2 mM CaCl2", "result": "slightly inhibited"}
    ]}
  ]
}
